Laboratory results published in US4647685A, “2-alkoxy-1-((2-trialkylaminoethoxy)phosphinyloxy)-alkenes and alkynes, hydroxy inner salts” (Eli Lilly and Company, priority 1985, dated 1987).
Counter-ions that a name gives are not always drawn.

Legend:
CCRF-CEM cell line = experiment: Inhibition of growth of human leukemic cells (CCRF-CEM Cytotoxicity Screen); format: cell-based; conditions: in vitro, read-out: IC50 (concentration giving 50% growth inhibition)
[1] = test system: X-5563 (multiple myeloma); experiment: Activity against X-5563 (multiple myeloma) tumor maintained in C3H mice; format: in vivo; conditions: I.P. daily for 10 days, tumors measured days 10 to 12
Experimental: (§1) The following protocol was employed. The tumor was removed from passage animals and minced into 1 to 3 mm square fragments using sterile techniques. Tumor pieces were checked for sterility using both Antibiotic Medium 1 and Brain Heart Infusion (Difco; Detroit, MI). Recipient mice were shaved and tumor pieces were implanted subcutaneously in the axillary region by trocar. Drug therapy on the appropriate schedule was initiated on the day after tumor implant. The compound was dissolved in saline for all experiments. All animals were weighed at the beginning and end of drug treatment. Food and water were provided ad libitum. Each test group contains 5 animals. On days 10 to 12, two dimensional measurements (width and length) of all tumors were taken using vernier calipers. Tumor weights were calculated from these measurements using the following formula:
Tumor Weight (mg)=Tumor Length (mm) X Tumor Width (mm)^2 /2
(§2) For all data, the tumor weight was rounded to the nearest tenth of a gram for analysis. No group is included in the analysis for therapeutic activity in which deaths attributable to drug toxicity exceeded 30 percent of the treated group.
(§3) In Table 2 which follows, column 1 gives the name of the compound; column 2, the dose level; column 3, the percent inhibition of the tumor; and column 4, the toxic deaths. Drug and control doasges were administered I.P. daily for 10 days.

[2] = Toxic deaths in the X-5563 (multiple myeloma) tumor test; format: in vivo, C3H mice; conditions: I.P. daily for 10 days
Experimental: as §1, with “formula: […]” for “formula:”
as §2, §3

CCCCC/C=C\C/C=C\CCCCCCCC(COP(=O)([O-])OCC[N+](C)(C)C)OC (racemic) [(Z,Z)-(±)-2-Methoxy-1-[(2-trimethylaminoethoxy)phosphinyloxy]-10,13-nonadecadiene, hydroxy inner salt]
IC50 (CCRF-CEM cell line): 4.2 µg/mL

CCCCCCCC/C=C\CCCCCCCC(COP(=O)([O-])OCC[N+](C)(C)C)OCC (racemic) [(Z)-(±)-2-ethoxy-1-[(2-trimethylaminoethoxy)phosphinyloxy]-10-nonadecene, hydroxy inner salt]
IC50 (CCRF-CEM cell line): 1.6 µg/mL | Percent Inhibition of Tumor ([1]; 50 mg/kg): 47% | Toxic Deaths ([2]; 50 mg/kg): 1/10

CCCCC/C=C\C/C=C\CCCCCCCC(COP(=O)([O-])OCC[N+](C)(C)C)OCC (racemic) [(Z,Z)-(±)-2-Ethoxy-1-[(2-trimethylaminoethoxy)phosphinyloxy]-10,13 nonadecadiene, hydroxy inner salt]
IC50 (CCRF-CEM cell line): 6 µg/mL | Percent Inhibition of Tumor ([1]; 70 mg/kg): 31% | Toxic Deaths ([2]; 70 mg/kg): 2/10
